# Measurements from patent US8933228B2, “Respiratory formulations and compounds for use therein” (Respivert, Ltd., priority 2010, dated 2015).
# Assays:
# p38 MAPK alpha (MAPK14) = p38 MAPK alpha (MAPK14) (Homo sapiens (Human), UniProt Q16539); assay: Enzyme inhibition assay (FRET, Z-LYTE), p38 MAPK alpha via MAPKAP-K2 activation; assay type: biochemical; conditions: read-out: Enzyme Profile: IC50 Values p38α
# Method: (§1) The enzyme inhibitory activity of test compounds was determined by fluorescence resonance energy transfer (FRET) using synthetic peptides labelled with both donor and acceptor fluorophores (Z-LYTE, Invitrogen). Recombinant, phosphorylated p38 MAPK γ (MAPK12:Millipore) was diluted in HEPES buffer, mixed with compound at the desired final concentrations and incubated for 2 hr at RT. The FRET peptide (2 μM) and ATP (100 μM) were next added to the enzyme/compound mixture and incubated for 1 hr. Development reagent (protease) was added for 1 hr prior to detection in a fluorescence microplate reader. The site-specific protease only cleaves non-phosphorylated peptide and eliminates the FRET signal. Phosphorylation levels of each reaction were calculated using the ratio of coumarin emission (donor) over fluorescein emission (acceptor) with high ratios indicating high phosphorylation levels and low ratios indicating low phosphorylation levels.
# For p38 MAPK alpha (MAPK14: Invitrogen), enzyme activity was evaluated indirectly by determining activation/phosphorylation of the down-stream molecule, MAPKAP-K2. The p38 MAPK a protein was mixed with compound for 2 hr at RT. […] Development reagent was then added and the mixture incubated for 1 hr before detection by fluorescence completed the assay protocol.
# The enzyme inhibitory activity of compound was determined by fluorescence resonance energy transfer (FRET) using synthetic peptides labelled with both donor and acceptor fluorophores (Z′-LYTE, Invitrogen).
# p38 MAPK γ (MAPK12) = p38 MAPK γ (MAPK12) (Homo sapiens (Human), UniProt P53778); assay: Enzyme inhibition assay (FRET, Z-LYTE), p38 MAPK gamma; assay type: biochemical; conditions: read-out: Enzyme Profile: IC50 Values p38γ
# Method: as §1
# HCK enzyme = HCK enzyme (Homo sapiens (Human), UniProt P08631); assay: HCK enzyme inhibition assay (FRET, Z'-LYTE); assay type: biochemical; conditions: read-out: Enzyme Profile: IC50 Values HCK
# cSrc enzyme = cSrc enzyme (Homo sapiens (Human), UniProt P12931); assay: c-SRC enzyme inhibition assay (FRET, Z'-LYTE); assay type: biochemical; conditions: read-out: Enzyme Profile: IC50 Values cSrc
# [1] = system: TNFα release in THP-1 cells; assay: LPS-induced TNFα release in THP-1 cells; assay type: cell-based; conditions: Homo sapiens; THP-1 cells, LPS 3 μg/mL, 4 hr; read-out: THP1 (LPS) TNFα IC50
# Method: The inhibition of TNFα production was calculated at each concentration by comparison with vehicle control.
# [2] = system: TNFα release in d-U937 cells; assay: LPS-induced TNFα release in d-U937 cells; assay type: cell-based; conditions: Homo sapiens, dU937, LPS 0.1 μg/mL, 4 hr, relative to 10 μg/mL BIRB796, read-out: d-U937 (LPS) TNFα REC50
# Method: (§2) U937 cells, a human monocytic cell line, were differentiated to macrophage-type cells by incubation with phorbol myristate acetate (PMA; 100 ng/mL) for 48 to 72 hr, whereupon the cells become adherent. […] Coli: O111:B4, Sigma) for 4 hr. The supernatant was collected for determination of TNFα and IL-8 concentrations by sandwich ELISA (Duo-set, R&D systems). […] The relative 50% effective concentration (REC50) was determined from the resultant concentration-response curve. The inhibition of IL-8 production was calculated at each concentration of test compound by comparison with vehicle control.
# [3] = system: IL-8 release in d-U937 cells; assay: LPS-induced IL-8 release in d-U937 cells; assay type: cell-based; conditions: Homo sapiens, dU937; d-U937 cells, LPS 0.1 μg/mL, 4 hr; read-out: d-U937 (LPS) IL-8 IC50
# Method: as §2
# [4] = system: ICAM-1 expression in BEAS2B cells; assay: Poly I:C-induced ICAM-1 induction in BEAS2B cells; assay type: cell-based; conditions: Homo sapiens, BEAS-2B; BEAS2B cells, poly I:C 1 μg/mL, 18 hr; read-out: BEAS2B (polyIC) ICAM1 IC50
# Method: Poly I:C (1 μg/mL) (Invivogene Ltd., San Diego, Calif.) was transfected into BEAS2B cells (human bronchial epithelial cells, ATCC) with Oligofectamine (Invitrogen, Carlsbad, Calif.). Cells were pre-incubated with final concentrations of test compounds for 2 hr and the level of ICAM1 expression on the cell surface was determined by cell-based ELISA. […] The cells were washed with PBS-Tween and incubated with the secondary antibody (HRP-conjugated anti-rabbit IgG, Dako Ltd., Glostrup, Denmark).
# HRV16 = assay: Rhinovirus-titre assay; assay type: cell-based, human rhinovirus; conditions: HRV16; for inhibition at 0.04 µg/mL: Human rhinovirus sp., cell not marked b, test compounds 0.04 μg/mL per method (footnote b, 0.2 μg/mL), read-out: HRV titre (inhibitory %): % inhibition observed vs. HRV16 infection control; for NBEC (HRV) HRV titre Relative anti-viral activity: at 0.04 μg/mL vs. pleconaril at 0.1 μg/mL
# Method: MRC5 cells (human lung fibroblast, ATCC) were infected with 1 MOI (multiplicity of infection of 1.0) of HRV16 and incubated for 1 hr at 33° C. with gentle shaking to stimulate adsorption. The cells were then washed with PBS, fresh media was added and the cells were incubated for a further 96 hr. The supernatant was collected and 10-fold serial dilutions of virus containing supernatant were prepared. All titrations were performed by infecting confluent Hela cell monolayers with serially diluted supernatant (10^−1-10^−5) and assessing the cytopathic effect by visual inspection 4 days after infection. The amount of virus required to infect 50% of Hela cells was calculated in each treatment as TCID50. Test compounds (0.04 μg/mL) were added 2 hr before HRV infection and 1 hr after infection when non-infected HRV was washed out. The anti-HRV activity of each test compound was determined as the difference of the log TCID50 of HRV16 in the presence of the compound with the log TCID50 of HRV16 in the absence of compound. […]
# [5] = system: Differentiated U937 cells; assay: MTT assay: cell viability; assay type: cell-based, human; conditions: 1 μg/ml; for d-U937 MTT Assay 4 h: 5% FCS; for d-U937 MTT Assay 24 h: 10% FCS
# Method: Differentiated U937 cells were pre-incubated with each test compound under two protocols: the first for 4 hr in 5% FCS and the second in 10% FCS for 24 h. The supernatant was replaced with 200 μL of new media and 10 μL of MTT stock solution (5 mg/mL) was added to each well. After incubation for 1 hr the media were removed, 200 μL of DMSO was added to each well and the plates were shaken lightly for 1 hr prior to reading the absorbance at 550 nm. The percentage loss of cell viability was calculated for each well relative to vehicle (0.5% DMSO) treatment. Consequently an apparent increase in cell viability for drug treatment relative to vehicle is tabulated as a negative percentage.
IC50 (p38 MAPK alpha (MAPK14)) [nM],IC50 (p38 MAPK γ (MAPK12)) [nM],IC50 (HCK enzyme) [nM],IC50 (cSrc enzyme) [nM],IC50 [1] [nM],EC50 [2] [nM],IC50 [3] [nM],Compound,IC50 [4] [nM],inhibition at 0.04 µg/mL (HRV16) [%],NBEC (HRV) HRV titre Relative anti-viral activity (HRV16),d-U937 MTT Assay 4 h [5],d-U937 MTT Assay 24 h [5]
17,74,< 2,7,1.6,0.2,19,"Cc1ccc(-n2nc(C(C)(C)C)cc2NC(=O)Nc2ccc(Oc3ccnc4[nH]c(=O)[nH]c34)c3ccccc23)cc1 [Example 1, 1-(3-tert-butyl-1-p-tolyl-1H-pyrazol-5-yl)-3-(4-(2-oxo-2,3-dihydro-1H-imidazo [4,5-b]pyridin-7-yloxy)naphthalen-1-yl) urea]",2.7,94,0.1,"− (− and + indicate the result is below and above the no significant effect threshold, respectively (<30% inhibition at a concentration of 1 μg/ml))","− (− and + indicate the result is below and above the no significant effect threshold, respectively (<30% inhibition at a concentration of 1 μg/ml))"
5,19,4,10,17,5.6,6.7,Cc1ccc(-n2nc(C3(C)CC3)cc2NC(=O)Nc2ccc(Oc3ccnc4[nH]c(=O)cnc34)c3ccccc23)cc1 [Example 29],13,60,,"− (− and + indicate the result is below and above the no significant effect threshold, respectively (<30% inhibition at a concentration of 1 μg/ml))","− (− and + indicate the result is below and above the no significant effect threshold, respectively (<30% inhibition at a concentration of 1 μg/ml))"
18,214,7,0.9,185,171,378,"CC(C)(C)c1cc(NC(=O)Nc2ccc(Oc3ccnc4[nH]c(=O)[nH]c34)c3ncccc23)n(-c2ccccc2)n1 [Example 4, 1-(3-tert-butyl-1-phenyl-1H-pyrazol-5-yl)-3-(8-(2-oxo-2,3-dihydro-1H-imidazo [4,5-b]pyridin-7-yloxy)quinolin-5-yl) urea]",581,60,0.7,"− (− and + indicate the result is below and above the no significant effect threshold, respectively (<30% inhibition at a concentration of 1 μg/ml))","− (− and + indicate the result is below and above the no significant effect threshold, respectively (<30% inhibition at a concentration of 1 μg/ml))"
5,180,< 2,0.8,163,166,726,"COc1ccc(-n2nc(C(C)(C)C)cc2NC(=O)Nc2ccc(Oc3ccnc4[nH]c(=O)[nH]c34)c3ncccc23)cc1 [Example 14, 1-(3-(tert-Butyl)-1-(4-methoxyphenyl)-1H-pyrazol-5-yl)-3-(8-((2-oxo-2,3-dihydro-1H-imidazo[4,5-b]pyridin-7-yl)oxy)quinolin-5-yl)urea]",675,8,1.5,"− (− and + indicate the result is below and above the no significant effect threshold, respectively (<30% inhibition at a concentration of 1 μg/ml))","− (− and + indicate the result is below and above the no significant effect threshold, respectively (<30% inhibition at a concentration of 1 μg/ml))"
7,23,4,5,0.6,0.6,4.6,"COc1ccc(-n2nc(C(C)(C)C)cc2NC(=O)Nc2ccc(Oc3ccnc4[nH]c(=O)n(C)c34)c(Cl)c2Cl)cc1 [Example 13, 1-(3-(tert-Butyl)-1-(4-methoxyphenyl)-1H-pyrazol-5-yl)-3-(2,3-dichloro-4-((1-methyl-2-oxo-2,3-dihydro-1H-imidazo[4,5-b]pyridin-7-yl)oxy)phenyl)urea]",6.2,,,"− (− and + indicate the result is below and above the no significant effect threshold, respectively (<30% inhibition at a concentration of 1 μg/ml))","+ (− and + indicate the result is below and above the no significant effect threshold, respectively (<30% inhibition at a concentration of 1 μg/ml))"
7,29,3,13,75,1.9,1.6,"CNS(=O)(=O)Cc1ccc(-n2nc(C(C)(C)C)cc2NC(=O)Nc2ccc(Oc3ccnc4[nH]c(=O)cnc34)c3ccccc23)cc1 [Example 26, 1-(4-(3-(tert-butyl)-5-(3-(4-((3-oxo-3,4-dihydropyrido[2,3-b]pyrazin-8-yl)oxy)naphthalen-1-yl)ureido)-1H-pyrazol-1-yl)phenyl)-N-methylmethanesulfonamide]",207,,,"− (− and + indicate the result is below and above the no significant effect threshold, respectively (<30% inhibition at a concentration of 1 μg/ml))","− (− and + indicate the result is below and above the no significant effect threshold, respectively (<30% inhibition at a concentration of 1 μg/ml))"
